The values that follow come from the supplement of paper PMC10307832.

Assay in all cases: relative viability (nuclei count vs DMSO), 5 days (fraction); higher = more cells survive
Compound in the experiment “FG-4592 + Pictilisib”: Cc1nc(C(=O)NCC(=O)O)c(O)c2ccc(Oc3ccccc3)cc12 [FG-4592] + CS(=O)(=O)N1CCN(Cc2cc3nc(-c4cccc5[nH]ncc45)nc(N4CCOCC4)c3s2)CC1 [Pictilisib] (partner 1 µM)
An outline of the steps: (§1)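 Each reported value is a median over duplicate plates. It expresses relative viability: treated-well nuclei count divided by vehicle-well nuclei count. Lung cancer cell lines in 1536-well plates were dosed by pin tool a day after seeding, alone with one drug or with a fixed anchor-drug dose plus five library-drug doses (not always all listed) in √10 steps, and nuclei were counted after 5 days.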

Compound in the experiment “FG-4592 + Linsitinib”: Cc1nc(C(=O)NCC(=O)O)c(O)c2ccc(Oc3ccccc3)cc12 [FG-4592] + C[C@]1(O)C[C@@H](c2nc(-c3ccc4ccc(-c5ccccc5)nc4c3)c3c(N)nccn32)C1 [Linsitinib] (partner 1 µM)
An outline of the steps: as §1

Compound in the experiment “FG-4592 + Crizotinib”: Cc1nc(C(=O)NCC(=O)O)c(O)c2ccc(Oc3ccccc3)cc12 [FG-4592] + C[C@@H](Oc1cc(-c2cnn(C3CCNCC3)c2)cnc1N)c1c(Cl)ccc(F)c1Cl [Crizotinib] (partner 1 µM)
An outline of the steps:
as §1

Compound in the experiment “IU1-47 + Foretinib”: CC1=CC(=C(N1C2=CC=C(C=C2)Cl)C)C(=O)CN3CCCCC3 [IU1-47] + COc1cc2c(Oc3ccc(NC(=O)C4(C(=O)Nc5ccc(F)cc5)CC4)cc3F)ccnc2cc1OCCCN1CCOCC1 [Foretinib] (partner 0.25 µM)
The gist of the method: as §1

Consider UMC-11, for which the relative viability with FG-4592 + Pictilisib (first compound 0.08 µM) turned out to be 0.722; with FG-4592 + Pictilisib (first compound 0.253 µM) it was 0.714; with FG-4592 + Pictilisib (first compound 0.8 µM) it was 0.599; with FG-4592 + Pictilisib (first compound 2.53 µM), 0.74; with FG-4592 + Pictilisib (first compound 8 µM), 0.7; with FG-4592 + Linsitinib (first compound 0.08 µM) it was 0.974. In addition, the relative viability with FG-4592 + Linsitinib (first compound 0.253 µM) was 0.93; with FG-4592 + Linsitinib (first compound 0.8 µM), 0.933; in the experiment with FG-4592 + Linsitinib (first compound 2.53 µM), 1.06; with FG-4592 + Linsitinib (first compound 8 µM), 0.87; with FG-4592 + Crizotinib (first compound 0.08 µM), 0.546; with FG-4592 + Crizotinib (first compound 0.253 µM) it was 0.644. Besides, the relative viability with FG-4592 + Crizotinib (first compound 0.8 µM) is 0.582; with FG-4592 + Crizotinib (first compound 2.53 µM), 0.642; in the experiment with FG-4592 + Crizotinib (first compound 8 µM), 0.536; in the experiment with IU1-47 + Foretinib (first compound 0.08 µM) it was 1.13; with IU1-47 + Foretinib (first compound 0.253 µM), 0.99; with IU1-47 + Foretinib (first compound 0.8 µM) it was 1.25. Also, the values for the relative viability with IU1-47 + Foretinib (first compound 2.53 µM) and in the experiment with IU1-47 + Foretinib (first compound 8 µM) were 1.15 and 1.13, respectively.
